# Data as given in paper PMC9936582, “Sulfamate Acetamides as Self-Immolative Electrophiles for Covalent Ligand-Directed Release Chemistry” (Journal of the American Chemical Society, 2023).
# Tested on: Mino cells
# Assay: Competitive pull-down proteomics with ibrutinib alkyne probe in Mino cells
# Assay type: cell-based, human
# Details: 1 µM compound 1 h
# Method: (10 μM). This was followed by a reaction with biotin-azide using CuAAC, enrichment of the labeled proteins, and their quantification by tryptic digestion and LC/MS/MS analysis.
# The samples were then precipitated with methanol: chloroform (1 mL of methanol, 250 μL of chloroform, and 750 μL of water), washed with 1 mL of methanol, and air-dried. The samples were solubilized and bound to streptavidin agarose beads in PBS for 3 h at 25 °C. The beads were washed, centrifuged, and resuspended in Tris 50 mM pH 8 and transferred to a clean Eppendorf tube. After this, the bound proteins were eluted by boiling with 5% SDS then reduced with DTT, alkylated with iodoacetamide, and digested with trypsin. The samples were run on LC/MS/MS. The detailed procedure is available in the Supplementary Information. The mass spectrometry proteomics data have been deposited to the ProteomeXchange Consortium via the PRIDE[67] partner repository with the dataset identifiers PXD038301 and PXD038375.
# 400 µL of 0.1% IGEPAL/PBS were added, and the beads were washed 3 times with 0.1% IGEPAL/PBS, 3 times PBS and 3 times water. The peptides were eluted by incubation with 200 µL of 50% acetonitrile + 0.1% TFA for 5 min, followed by two more portions of 100 µL of 50% acetonitrile + 0.1% TFA. The samples were dried by speedvac, and further purified using Oasis desalting columns (Waters), after which they were dried and run on the instrument.
# Pull-down samples preparation […]
# incubation with 10 μM “probe 4” for another hour. The samples were prepared in quadruplicates. The cells were washed with cold PBS, from the flasks and frozen. Then, each sample was lysed in 200 μL of […]
# The protein in the supernatant was quantified using BCA. For each sample, 250 μL of 1.7 mg/mL was prepared. At this point, 5 μL of 5 mM biotin azide and 9 μL of 100 mM CuSO4/THPTA complex were added. The click reaction was initiated by the addition of 7.5 μL of 150 mM sodium ascorbate, and the samples are incubated at room temperature for 1 h. The samples were then precipitated with methanol/chloroform (1 mL methanol, 250 μL chloroform, 750 μL water), washed with 1 mL of methanol, and air-dried. […]
# and heated to 95 °C for 5 min. The samples were then diluted to 1.5 mL with PBS, and 50 μL of streptavidin agarose beads, prewashed with 0.2% SDS in PBS, was added, followed by 3 h incubation at room temperature. Following the incubation, the beads were centrifuged at 2000g for 2 min and washed four times with the following buffers (4 mL in each wash): 2% SDS; 0.1% sodium deoxycholate, 1% Triton X-100, 0.5 M NaCl, 1 mM EDTA, 50 mM HEPES pH = 7.5; 0.25 M NaCl, 0.5% IGEPAL, 0.5% sodium deoxycholate, 1 mM EDTA, 10 mM Tris pH = 8.1; 50 mM Tris pH = 7.4, 50 mM NaCl. […]
# with heating to 95 °C for 6 min and occasional vortexing. Finally, the beads were spun down (2 min 2000g) and 80 μL of supernatant was removed to separate tubes. […]
# had cooled, 4 μL of iodoacetamide (0.2 M) were added, and the samples were incubated in the dark for 40 min at room temperature. […]
# samples were diluted 6-fold with 90% methanol + 50 mM ammonium bicarbonate. The samples were then […]
# loaded on S-trap micro columns (Protify), and the columns were washed three times with 150 μL of 90% methanol + 50 mM ammonium bicarbonate. Then, 20 μL of 0.05 μg/μL of trypsin in 50 mM ammonium bicarbonate was added to the columns and the samples were incubated at 47 °C for 90 min. Then, 40 μL of 50 mM ammonium bicarbonate was added, followed by centrifugation and addition of 1 μL of 0.5 μg/μL trypsin to the eluate, which was incubated at 37 °C overnight. The column itself was then eluted using 40 μL of 0.2% formic acid and 40 μL 0.2% formic acid in 50% acetonitrile into a separate tube, which was kept at 4 °C. The two eluates were then combined and evaporated. The samples were further desalted using […]
compound,measurement,setting,value
Nc1ncnc2c1c(-c1ccc(Oc3ccccc3)cc1)nn2[C@@H]1CCCN(C(=O)COS(=O)(=O)NCc2ccccc2)C1 [3d],Log2(Fold Change),4F2_HUMAN,-0.3468
same,Log2(Fold Change),AATM_HUMAN,1.62
same,Log2(Fold Change),ACSF3_HUMAN,0.1421
same,Log2(Fold Change),AHNK_HUMAN,2.176
same,Log2(Fold Change),ALG1_HUMAN,-0.2223
same,Log2(Fold Change),ANXA1_HUMAN,2.107
same,Log2(Fold Change),APEX1_HUMAN,0.5549
same,Log2(Fold Change),ARP3_HUMAN;ARP3B_HUMAN;ARP3C_HUMAN,0.3683
same,Log2(Fold Change),AT1A1_HUMAN;AT1A2_HUMAN;AT1A4_HUMAN;ATP4A_HUMAN;AT12A_HUMAN,0.9797
same,Log2(Fold Change),ATP5H_HUMAN,0.3377
same,Log2(Fold Change),ATPK_HUMAN,0.2949
same,Log2(Fold Change),ATPO_HUMAN,-0.283
same,Log2(Fold Change),ATX10_HUMAN,0.3503
same,Log2(Fold Change),BST2_HUMAN,0.9798
same,Log2(Fold Change),BZW1_HUMAN,0.5267
same,Log2(Fold Change),C1TM_HUMAN,-0.1466
same,Log2(Fold Change),CALL5_HUMAN,-0.1469
same,Log2(Fold Change),CD20_HUMAN,-0.02247
same,Log2(Fold Change),CD38_HUMAN,0.01573
same,Log2(Fold Change),CLCA_HUMAN,-0.02966
same,Log2(Fold Change),CLH1_HUMAN;CLH2_HUMAN,2.15
same,Log2(Fold Change),COX2_HUMAN,-0.2094
same,Log2(Fold Change),CRERF_HUMAN,-0.7334
same,Log2(Fold Change),DD19B_HUMAN;DD19A_HUMAN,-0.05233
same,Log2(Fold Change),DDX3X_HUMAN;DDX3Y_HUMAN;DDX4_HUMAN,1.382
same,Log2(Fold Change),DNJC7_HUMAN,0.6525
same,Log2(Fold Change),DSC1_HUMAN,-0.7969
same,Log2(Fold Change),EF1B_HUMAN,-0.6176
same,Log2(Fold Change),EPIPL_HUMAN,0.9511
same,Log2(Fold Change),FPPS_HUMAN,-0.6242
same,Log2(Fold Change),GCR_HUMAN,0.4122
same,Log2(Fold Change),GLYM_HUMAN;GLYC_HUMAN,1.206
same,Log2(Fold Change),GSDMA_HUMAN,0.09253
same,Log2(Fold Change),HMCS1_HUMAN,0.6183
same,Log2(Fold Change),HXK2_HUMAN;HXK3_HUMAN,0.4444
same,Log2(Fold Change),IF4A1_HUMAN,0.3836
same,Log2(Fold Change),IF4A3_HUMAN,0.3127
same,Log2(Fold Change),IF4H_HUMAN,0.66
same,Log2(Fold Change),IGLL5_HUMAN;IGL1_HUMAN;IGLC1_HUMAN,-2.924
same,Log2(Fold Change),LAPM5_HUMAN,0.7164
same,Log2(Fold Change),LAT1_HUMAN,-0.2987
same,Log2(Fold Change),LMNA_HUMAN,1.21
same,Log2(Fold Change),MATR3_HUMAN,1.3535
same,Log2(Fold Change),MBB1A_HUMAN,0.0529
same,Log2(Fold Change),MCCA_HUMAN,-0.3018
same,Log2(Fold Change),MIC19_HUMAN,0.1905
same,Log2(Fold Change),MP2K7_HUMAN,1.5282
same,Log2(Fold Change),NCEH1_HUMAN,1.226
same,Log2(Fold Change),NT5D1_HUMAN,2.611
same,Log2(Fold Change),NUCL_HUMAN,0.5701
same,Log2(Fold Change),OTUB1_HUMAN,0.2048
same,Log2(Fold Change),P121C_HUMAN;P121A_HUMAN,0.4168
same,Log2(Fold Change),PARK7_HUMAN,1.57
same,Log2(Fold Change),PCKGM_HUMAN,0.1766
same,Log2(Fold Change),PEBP1_HUMAN,-0.8247
same,Log2(Fold Change),PEPL_HUMAN,0.8796
same,Log2(Fold Change),PFKAL_HUMAN,-0.4948
same,Log2(Fold Change),PGK1_HUMAN;PGK2_HUMAN,0.5127
same,Log2(Fold Change),PIP_HUMAN,0.8481
same,Log2(Fold Change),PLAK_HUMAN;CTNB1_HUMAN,-0.4311
same,Log2(Fold Change),POF1B_HUMAN,0.5955
same,Log2(Fold Change),PSA3_HUMAN,0.515
same,Log2(Fold Change),PSB8_HUMAN,0.8443
same,Log2(Fold Change),RAB1A_HUMAN;RAB1B_HUMAN;RAB1C_HUMAN,0.5794
same,Log2(Fold Change),RANG_HUMAN;IPKB_HUMAN,-0.3375
same,Log2(Fold Change),RAP1B_HUMAN;RAP1A_HUMAN;RP1BL_HUMAN;RAB3D_HUMAN,0.1236
same,Log2(Fold Change),RFTN1_HUMAN,0.055
same,Log2(Fold Change),RL13A_HUMAN;R13P3_HUMAN,0.2889
same,Log2(Fold Change),RL18_HUMAN,0.278
same,Log2(Fold Change),RLA1_HUMAN,1.604
same,Log2(Fold Change),RN3P2_HUMAN,-0.7545
same,Log2(Fold Change),RS28_HUMAN,1.706
same,Log2(Fold Change),RTN4_HUMAN,-0.003108
same,Log2(Fold Change),RUVB2_HUMAN,0.8199
same,Log2(Fold Change),S38A1_HUMAN,0.5709
same,Log2(Fold Change),S61A1_HUMAN;S61A2_HUMAN,0.03923
same,Log2(Fold Change),SAE2_HUMAN,0.8525
same,Log2(Fold Change),SATT_HUMAN,-0.2942
same,Log2(Fold Change),SCRB1_HUMAN,0.8748
same,Log2(Fold Change),SIAT1_HUMAN,0.1522
same,Log2(Fold Change),SO4A1_HUMAN,1.533
same,Log2(Fold Change),SPB4_HUMAN,2.369
same,Log2(Fold Change),SPB12_HUMAN,-0.3346
same,Log2(Fold Change),SSDH_HUMAN,1.965
same,Log2(Fold Change),SUCB1_HUMAN,0.8691
same,Log2(Fold Change),TAP1_HUMAN,-1.533
same,Log2(Fold Change),TAP2_HUMAN;ABCB8_HUMAN;ABCBA_HUMAN,0.8469
same,Log2(Fold Change),TBB2B_HUMAN;TBB2A_HUMAN,-0.1459
same,Log2(Fold Change),TSN_HUMAN,-0.1715
same,Log2(Fold Change),TX264_HUMAN,0.3926
same,Log2(Fold Change),UB2V2_HUMAN;UB2V1_HUMAN,1.306
same,Log2(Fold Change),UBP5_HUMAN,-0.01896
same,Log2(Fold Change),UBP14_HUMAN,1.116
same,Log2(Fold Change),URP2_HUMAN,0.2486
same,Log2(Fold Change),USMG5_HUMAN,0.3682
same,Log2(Fold Change),VDAC1_HUMAN,0.3637
same,Log2(Fold Change),VEZA_HUMAN,-0.126
same,Log2(Fold Change),XPO2_HUMAN,0.1341
same,Log2(Fold Change),XPO5_HUMAN,0.1456
same,Log2(Fold Change),ZDHC8_HUMAN,-1.527
